Experimental findings from US8053574B2, “Organic compounds” (Novartis AG, priority 2007, dated 2011) are described below.

Molecules are shown by their SMILES.

Chain of PI3K γ (P48736 whole entry): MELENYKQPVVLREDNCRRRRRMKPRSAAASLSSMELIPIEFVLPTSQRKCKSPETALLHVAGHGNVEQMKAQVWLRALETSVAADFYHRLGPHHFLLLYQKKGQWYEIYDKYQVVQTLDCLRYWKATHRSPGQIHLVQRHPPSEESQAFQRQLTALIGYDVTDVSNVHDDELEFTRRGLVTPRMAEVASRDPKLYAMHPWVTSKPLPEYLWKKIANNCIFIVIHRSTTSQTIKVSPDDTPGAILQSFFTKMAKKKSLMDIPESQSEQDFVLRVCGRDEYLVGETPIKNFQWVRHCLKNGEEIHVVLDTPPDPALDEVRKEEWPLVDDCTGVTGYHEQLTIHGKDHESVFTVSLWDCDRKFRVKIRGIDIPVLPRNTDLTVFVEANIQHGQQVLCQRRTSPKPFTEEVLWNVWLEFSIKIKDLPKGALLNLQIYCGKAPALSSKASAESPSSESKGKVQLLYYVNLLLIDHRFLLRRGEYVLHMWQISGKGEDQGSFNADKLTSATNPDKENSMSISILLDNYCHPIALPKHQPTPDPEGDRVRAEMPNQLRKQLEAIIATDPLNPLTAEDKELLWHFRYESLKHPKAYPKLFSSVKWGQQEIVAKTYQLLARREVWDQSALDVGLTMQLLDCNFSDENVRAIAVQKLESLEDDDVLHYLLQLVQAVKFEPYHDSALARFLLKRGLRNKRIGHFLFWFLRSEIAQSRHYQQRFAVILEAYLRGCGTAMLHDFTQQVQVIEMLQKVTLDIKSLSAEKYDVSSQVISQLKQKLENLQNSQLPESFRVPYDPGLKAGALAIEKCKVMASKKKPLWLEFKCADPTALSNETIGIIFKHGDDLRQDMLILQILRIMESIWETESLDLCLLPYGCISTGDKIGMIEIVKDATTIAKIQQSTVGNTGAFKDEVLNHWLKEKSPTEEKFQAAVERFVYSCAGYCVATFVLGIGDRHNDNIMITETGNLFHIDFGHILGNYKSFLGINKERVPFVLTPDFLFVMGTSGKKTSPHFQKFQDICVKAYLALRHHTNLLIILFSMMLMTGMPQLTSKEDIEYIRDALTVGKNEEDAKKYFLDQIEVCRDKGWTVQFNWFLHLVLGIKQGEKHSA

The first assay concerns the target PI3K γ (Homo sapiens, UniProt P48736). The assay can be described thus: PI3 kinase phosphorylation assay (Biological Method 1), Ki γ. It is filed as biochemical. As to conditions: Table 1, compounds of formula X.
Consider `CCc1nnn(CCNC(=O)Nc2cn3cc(-c4cncc(C(F)(F)F)c4)ccc3n2)n1` [drawing 63], for which the Ki stood at 0.026 µM.
Same read-out and setting: the result for `COCCOCCOc1cncc(-c2ccc3nc(NC(=O)NCCc4nnn(C(C)C)n4)cn3c2)c1` [drawing 47] reads 0.268 µM; that for `CCn1nnc(CCNC(=O)Nc2cn3cc(-c4ccc5c(c4)OCO5)ccc3n2)n1` [drawing 29], 0.303 µM.
Same read-out and setting: for `Cc1ccc(-c2ccc3nc(NC(=O)NCCc4nnn(C(C)C)n4)cn3c2)cn1` [drawing 61] the value was 0.113 µM.
Turning to `CCn1nnc(CCNC(=O)Nc2cn3cc(-c4cnc5ccccc5c4)ccc3n2)n1` [drawing 73], the Ki was 0.57 µM.

Still in this assay, the particulars now being: Table 2, compounds of formula X.
With `CCn1nnc(CCNC(=O)Nc2cn3cc(-c4cnn(C)c4)ccc3n2)n1` [Example 1-40, 1-[2-(2-Ethyl-2H-tetrazol-5-yl)-ethyl]-3-[6-(1-methyl-1H-pyrazol-4-yl)-imidazo[1,2-a]pyridin-2-yl]urea], the inhibition constant (Ki) stood at 0.456 µM.
Still for that read-out and setting: for `CC(C)n1nnc(CCNC(=O)Nc2cn3cc(-c4cncc(-c5ccccc5)c4)ccc3n2)n1` [Example 1-16, 1-[2-(2-Isopropyl-2H-tetrazol-5-yl)-ethyl]-3-[6-(5-phenyl-pyridin-3-yl)-imidazo[1,2-a]pyridin-2-yl]urea] the value was 0.24 µM; for `CC(=O)c1cncc(-c2ccc3nc(NC(=O)NCCc4nnn(C(C)C)n4)cn3c2)c1` [Example 1-43, 1-[6-(5-Acetyl-pyridin-3-yl)-imidazo[1,2-a]pyridin-2-yl]-3-[2-(2-isopropyl-2H-tetrazol-5-yl)-ethyl]urea], 0.008 µM.
The compound `COCCOCCOc1cncc(-c2ccc3nc(NC(=O)NCCc4nnn(C(C)C)n4)cn3c2)c1` [Example 1-17, 1-[2-(2-Isopropyl-2H-tetrazol-5-yl)-ethyl]-3-(6-{5-[2-(2-methoxy-ethoxy)-ethoxy]-pyridin-3-yl}-imidazo[1,2-a]pyridin-2-yl)-urea] showed a Ki of 0.268 µM.
The same measure, in the same setting: the result for `CC(C)(C)NC(=O)CCNC(=O)Nc1cn2cc(-c3cncc(-c4ccccc4)c3)ccc2n1` [Example 1-15, N-tert-Butyl-3-{3-[6-(5-phenyl-pyridin-3-yl)-imidazo[1,2-a]pyridin-2-yl]ureido}-propionamide] reads 0.207 µM.

Staying with this assay, now noted: Table 4.
`CCn1nnc(CCNC(=O)Nc2cn3cc(-c4cncc(C(F)(F)F)c4)ncc3n2)n1` [Example 3-4, 1-[2-(2-Ethyl-2H-tetrazol-5-yl)-ethyl]-3-[6-(5-trifluoromethyl-pyridin-3-yl)-imidazo[1,2-a]pyrazin-2-yl]-urea] gave a Ki of 0.027 µM.
Regarding `CCn1nnc(CCNC(=O)Nc2cn3cc(-c4cncc(C#N)c4)ncc3n2)n1` [Example 3-5, 1-[6-(5-Cyano-pyridin-3-yl)-imidazo[1,2-a]pyrazin-2-yl]-3-[2-(2-ethyl-2H-tetrazol-5-yl)-ethyl]-urea], the Ki is 0.098 µM. This Ki is about 3.6-fold higher than that of the compound before.
On the same count and under the same terms, for `CCn1nnc(CCNC(=O)Nc2nc3ccc(-c4cncc(C#N)c4)cn3n2)n1` [Example 3-9, 1-[6-(5-Cyano-pyridin-3-yl)-[1,2,4]triazolo[1,5-a]pyridin-2-yl]-3-[2-(2-ethyl-2H-tetrazol-5-yl)-ethyl]-urea] the value was 0.418 µM; for `CCn1nnc(CCNC(=O)Nc2nc3cc(-c4cncc(C(F)(F)F)c4)ccn3n2)n1` [Example 3-16, 1-[2-(2-Ethyl-2H-tetrazol-5-yl)-ethyl]-3-[7-(5-trifluoromethyl-pyridin-3-yl)-[1,2,4]triazolo[1,5-a]pyridin-2-yl]-urea], 0.64 µM.

In general, Ki refers to the equilibrium dissociation constant of an inhibitor or competing ligand from its target.
